In the supplement of paper PMC5412046:
Structures can show the parent of a compound that is named as a salt.

What was measured:
[1] = tested on: SB.mhdgc-1; experiment: viability at highest tested concentration (MAXR) relative to DMSO; higher = less cytotoxic; conditions: SB.mhdgc-1 (hereditary c.1380delA CDH1 gastric cancer)
Method in brief: (§1)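 Gastric cancer cells derived from hereditary or sporadic patients were treated for 48 h with compound at 11 threefold dilutions, with the top concentration recorded per compound. Viability was then read by CellTiter-Glo luminescence. Data are viability normalised to DMSO, at the highest concentration or as trapezoidal area under the curve.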

[2] = tested on: SB.msgc-1; experiment: as above; conditions: SB.msgc-1 (sporadic gastric cancer)
Method in brief: as §1

[3] = tested on: SB.mhdgc-1; experiment: area under the dose-response curve of % viability (trapezoidal, 11 doses) (% viability x log10 concentration); higher = less cytotoxic; conditions: SB.mhdgc-1 (hereditary c.1380delA CDH1 gastric cancer)
Method in brief: as §1

[4] = tested on: SB.msgc-1; experiment: as above; conditions: SB.msgc-1 (sporadic gastric cancer)
Method in brief: as §1

SMILES | viability [1] [%] | viability [2] [%] | area under the dose-response curve [3] | area under the dose-response curve [4]
Cc1c(C(=O)NN2CCCCC2)nn(-c2ccc(Cl)cc2Cl)c1-c1ccc(Cl)cc1 [Rimonabant] (top concentration 46.0829 µM) | 5.11 | 31.7 | 416 | 515
O=P(O)(O)C(O)(Cc1cccnc1)P(=O)(O)[O][Na] (stereo unspecified) [Risedronate sodium] (top concentration 46.0829 µM) | 112 | 107 | 506 | 559
CC(NCCc1ccc(O)cc1)C(O)c1ccc(O)cc1 (stereo unspecified) [Ritodrine hydrochloride] (top concentration 46.0829 µM) | 97.5 | 112 | 570 | 581
CC(C)c1nc(CN(C)C(=O)N[C@H](C(=O)N[C@@H](Cc2ccccc2)C[C@H](O)[C@H](Cc2ccccc2)NC(=O)OCc2cncs2)C(C)C)cs1 [Ritonavir] (top concentration 46.0829 µM) | 55.8 | 64.1 | 426 | 472
O=C(NCC1CN(c2ccc(N3CCOCC3=O)cc2)C(=O)O1)c1ccc(Cl)s1 (stereo unspecified) [Rivaroxaban] (top concentration 46.0829 µM) | 113 | 84.9 | 538 | 505
CCN(C)C(=O)Oc1cccc([C@H](C)N(C)C)c1 [Rivastigmine tartrate] (top concentration 46.0829 µM) | 106 | 125 | 615 | 594
CN(C)CCc1c[nH]c2ccc(Cn3cncn3)cc12 [Rizatriptan benzoate] (top concentration 46.0829 µM) | 107 | 71.7 | 589 | 392
COc1cc(C(C)C)c(Oc2cnc(NC(CO)CO)nc2N)cc1I [Ro 51] (top concentration 46.0829 µM) | 69.2 | 51.8 | 415 | 406
C[N]1C=C(C2=C1C=CC=C2)\C3=C(\C(=O)NC3=O)C4=C5CC(CN)CC[N]5C6=C4C=CC=C6 (stereo unspecified) [Ro-31-8425] (top concentration 46.0829 µM) | 2.44 | 6.88 | 364 | 489
O=C(C[C@@H]1C/C=C\CCC(=O)O[C@H](c2ccccc2)CNC1=O)NCc1ccc(Cl)cc1 [Robotnikinin] (top concentration 46.0829 µM) | 70.3 | 61.1 | 431 | 485
C=CC[N+]1([C@H]2C[C@H]3[C@@H]4CC[C@H]5C[C@H](O)[C@@H](N6CCOCC6)C[C@]5(C)[C@H]4CC[C@]3(C)[C@H]2OC(C)=O)CCCC1 [Rocuronium bromide] (top concentration 46.0829 µM) | 109 | 76.2 | 578 | 594
C[S+]([O-])(=O)C1=CC=C(C=C1)C/2=C(/C(=O)OC2)C3=CC=CC=C3 [Rofecoxib] (top concentration 46.0829 µM) | 118 | 105 | 555 | 545
O=C(Nc1c(Cl)cncc1Cl)c1ccc(OC(F)F)c(OCC2CC2)c1 [Roflumilast] (top concentration 46.0829 µM) | 90.6 | 85.9 | 528 | 558
COc1ccc(C2CNC(=O)C2)cc1OC1CCCC1 (stereo unspecified) [Rolipram] (top concentration 46.0829 µM) | 103 | 65.6 | 481 | 362
CCCn1c(=O)c2[nH]c(C34CC5CC3C[C@@H](C5)C4)nc2n(CCC)c1=O [Rolofylline] (top concentration 46.0829 µM) | 37.2 | 47.1 | 530 | 438
C/C=C1\NC(=O)[C@H]2CSSCC/C=C\[C@H](CC(=O)N[C@H](C(C)C)C(=O)N2)OC(=O)[C@H](C(C)C)NC1=O [Romidepsin] (top concentration 46.0829 µM) | 35.1 | 4.4 | 316 | 146
[O-]C(=O)C1=C(C(=C(Cl)C(=C1Cl)Cl)Cl)C/2=C/3\C=C(I)/C(=O)/C(=C3OC4=C2C=C(I)C(=C4I)[O-])I [Rose Bengal disodium] (top concentration 46.0829 µM) | 48.9 | 61 | 471 | 492
CN(CCOc1ccc(CC2SC(=O)NC2=O)cc1)c1ccccn1 (stereo unspecified) [Rosiglitazone] (top concentration 46.0829 µM) | 109 | 69.1 | 586 | 467
C=C(C)[C@H]1Cc2c(ccc3c2O[C@@H]2COc4cc(OC)c(OC)cc4[C@@H]2C3=O)O1 [Rotenone] (top concentration 46.0829 µM) | 35.7 | 38.9 | 441 | 417
